Values joined by “and” are separate entries in the source; they are usually repeats but may differ in a detail not shown here. Identical values can stand only once.
Key:
[1] = tested on: β-lactamase producing bacteria; test: Two-step filtration CDA/H2O2 assay of bacteria in synthetic urine; format: cell-based, E. coli, K. pneumoniae, E. cloacae, S. marcescens; conditions: for bacteria concentration in urine detectable: two-step filtration, 250-fold enrichment, H2O2 1 mM
Description: (§1) FIG. 4 illustrates the detection of lactam-resistant bacteria in urine samples. a) Illustration of the workflow in bacteria isolation and concentration from a urine sample for detection. The sample is first filtrated by a 5-μm filter to trap cells and large debris followed by a 0.22-μm filter to trap bacteria. The 0.22-μm filter is washed once before PBS/H2O2 (1 mM) is directed through the 0.22-μm filter in the opposite direction with a new syringe to recover the concentrated bacteria for detection in a plate reader. b) Longitudinal monitoring of fluorescence enhancement with CDA and concentrated E. coli, K. pneumoniae, K. pneumoniae/KPC, E. coli/TEM-1, E. coli/IMP-1, E. coli/KPC-3, E. cloacae/IMP, S. marcescens/SME, and E. coli/OXA-48 in the presence of H2O2 (1 mM). Star* indicate clinical isolates. The study was duplicated at room temperature with PBS as the buffer. The signal of CDA alone in PBS containing H2O2 (1 mM) was subtracted and the absolute values were plotted. The working concentration of CDA was 10 μM. Data were collected on a Tecan Safire microplate reader with excitation at 570 nm and emission at 600 nm. A.U. indicates arbitrary units.
To develop an easy-to-use, point-of-care assay for screening cephalosporin and carbapenem resistance, a simple two-step filtration method was employed (FIG. 26) to prepare and concentrate pathogenic bacteria, similar to a procedure applied for improving culture-based AST previously (Avesar et al., Procs. Nat. Acad. Sci. U.S.A, 2017, 114, E5787-E5795). […] The 5-micron filter would trap particles including cells and large debris, and bacteria would be collected by the 0.22-micron filter and washed by PBS. A reverse elution with PBS containing 1 mM H2O2 allowed immediate high-throughput analysis by a plate reader in a 96-well plate precoated with CDA. […] 50 mL of synthetic urine spiked with bacteria could be concentrated to approximately 200 μL ready-to-use suspension within a few minutes; polypropylene filters recover bacteria more efficiently (>90%) than commonly used nylon filters (FIG. 27). […]

esterase = test: Response of CDA to H2O2 with esterases alone; format: biochemical
[2] = tested on: β-lactamases (TEM-1 Bla, AmpC, BlaC, IMP-1, OXA-48, KPC-3); test: Detection of recombinant β-lactamases by CDA with esterase and H2O2; format: biochemical; conditions: all β-lactamases; esterase 1 μg/mL, H2O2 1 mM, 2 hours, room temperature; 3x SD of negative controls
K. pneumoniae = test: Two-step filtration CDA/H2O2 urine assay, negative control K. pneumoniae; format: cell-based; conditions: K. pneumoniae without β-lactamase, concentrated from urine
Description: as §1, with “units. […]” for “units.”

E. coli/IMP-1 = test: CDA/H2O2 detection of live E. coli expressing IMP-1 carbapenemase; format: cell-based; conditions: H2O2 1 mM, within 2 hours
Description: FIG. 3 illustrates the characterization of CDA with HRP, H2O2, E. coli expressing TEM-1 Bla (E. coli/TEM-1) and IMP-1 carbapenemase (E. coli/IMP-1), and K. pneumoniae expressing KPC carbapenemase (K. pneumoniae/KPC). a) Fluorescence enhancement of CDA incubated with different concentrations of E. coli expressing TEM-1 Bla. b) Fluorescence enhancement of CDA; HRP (1 unit/mL), H2O2 (1 μM), and either viable E. coli expressing TEM-1 Bla or bacterial lysate extracted from equal c.f.u. per milliliter. c) Fluorescence enhancement of CDA incubated with different concentrations of E. coli expressing TEM-1 Bla (H2O2, 1 mM). d) Fluorescent intensity of E. coli and E. coli/TEM-1 preincubated with CDA for 20 hours upon addition of H2O2 (500 μM) for 5 min. Error bars represent ±SD, n=3. * p<0.0332; **p<0.0021, ****p<0.0001, ns: not significant. e) Fluorescence enhancement of CDA incubated with different concentrations of E. coli expressing IMP-1 carbapenemase in the presence of H2O2 (1 mM). f) Fluorescence enhancement of CDA incubated with different concentrations of K. pneumoniae expressing KPC carbapenemase (H2O2, 1 mM). All the studies were duplicated at room temperature with PBS (pH=7.05) as the buffer unless other indicated. The working concentration of CDA was 10 μM. […] Data were collected on a Tecan Safire microplate reader with excitation at 570 nm and emission at 600 nm. […]

For CC(=O)Oc1ccc2c(c1)Oc1cc(OC(C)=O)ccc1N2C(=O)OCc1ccc(SCC2=C(C(=O)O)N3C(=O)[C@@H](NC(=O)Cc4ccccc4)[C@H]3SC2)cc1 [CDA, 3-(((4-(((3,7-diacetoxy-10H-phenoxazine-10-carbonyl)oxy)methyl)phenyl)thio)methyl)-8-oxo-7-(2-phenylacetamido)-5-thia-1-azabicyclo[4.2.0]oct-2-ene-2-carboxylic acid], the “fluorescent signal over time” value ([1]; all β-lactamase producing bacteria, after 250-fold enrichment) was “time dependent increase of fluorescent signal”, the “bacteria concentration in urine detectable” value ([1]; within 1 hour) was 10^5 c.f.u./mL and the “bacteria concentration in urine detectable” value ([1]; within 2 hours, room temperature) was 10^3 c.f.u./mL and 10^4 c.f.u./mL. For the same compound, the “change of the response of CDA to H2O2” value (esterase) was “barely changed”, the “limit of detection of β-lactamases” value [2] was 1 femtomole and the “fluorescent signal of negative control” value (K. pneumoniae) was “almost undetectable”. It also gave a bacteria concentration detected (E. coli/IMP-1) of 105 c.f.u./mL.

Source: patent publication US20240240226A1, “FLUOROGENIC ASSAY FOR RAPID SCREENING OF BACTERIAL BETA-LACTAMASE ACTIVITY” (The Board of Trustees of the Leland Stanford Junior …, priority 2021, published 2024)
